We go through 18 compounds from patent US6949250B2, “Selective algaecides for control of cyanochloronta” (The United States of America as represented by the …, priority 2002, dated 2005).

Test [1] deals with Oscillatoria perornata. Nature of the test: Rapid bioassay screening for selective algicides (LOEC, LCIC). The class given is cell-based. To be noted: for MIC: read-out: LCIC (lowest-complete-inhibition concentration), Oscillatoria perornata; for minimal effective concentration: read-out: LOEC (lowest-observed-effect concentration), Oscillatoria perornata.
From the text: (§1) These were screened in the laboratory by the method of Schrader et al. (K. K. Schrader, M. Q. de Regt, C. S. Tucker and S. O. Duke, A rapid bioassay for selective algicides. Weed Technol. (1997), vol. 11, pp. 767-774) for algicidal activity.
(§2) The anthraquinone derivatives were screened for selective toxicity towards Oscillatoria perornata, previously isolated from a Mississippi catfish pond, using the method of Schrader et al. (1997). The green alga Selenastrum capricornutum (obtained from the United States Environmental Protection Agency, Corvallis, Oreg.) was used as the representative green algal species in the bioassay since it is a common species found in southeastern United States catfish ponds. Absorbance readings were graphed, and graphs were used to determine the LOEC (lowest-observed-effect concentration) and the LCIC (lowest-complete-inhibition concentration) for each anthraquinone analog. In addition, a 96-hour 50% inhibition concentration (IC50) was determined for DNA1-19-1 and DNA2-59-1 by using the method described by Schrader et al. (1998b). Stock solutions of DNA1-19-1 and DNA2-59-1 were prepared so that final concentrations screened for 96-hour IC50 determinations were as follows: 1) 0, 0.01, 0.033, 0.1, 0.333, 1.0, 3.3, and 10.0 μM DNA1-19-1 for both O. perornata and S. capricornutum; 2) 0, 0.003, 0.01, 0.033, 0.1, 0.333, 1.0, and 3.333 μM DNA2-59-1 for O. perornata; and 3) 0, 0.1, 0.333, 1.0, 3.333, 10.0, 33.333, and 100.0 μM DNA2-59-1 for S. capricornutum. Estimation of the IC50 was determined by plotting 96-hour absorbance readings against logarithmic dilution values of the anthraquinone analogs. The screening results of the anthraquinone derivatives and commercially available analogs of anthraquinone are presented in Tables 1 and 2, respectively. The results in Table 1 reveal that DNA1-19-1 and DNA2-59-1 are the most promising analogs since these two compounds had the lowest LOEC and LCIC values for O. perornata (10 nM and 100 nM, respectively). Based upon IC50 results in Table 3, DNA2-59-1 appears to be more toxic and selective towards O. perornata than DNA1-19-1.
as §2, with “(A rapid bioassay for selective algicides. Weed Technol. (1997), vol. 11, pp. 767-774).” for “(1997).”, “(K. K. Schradar, M. Q. de Regt, P. D. Tidwell, C. S. Tucker and S. O. Duke, Selective growth inhibition of the musty-odor producing cyanobacterium Oscillatoria cf. chalybea by natural compounds. Bull. Environ. Contam. Toxicol. (1998a), vol.60, pp. 651-658).” for “(1998b).”, “The screening results of the anthraquinone derivatives and commercially available analogs of anthraquinone are presented in Tables 1 and 2, respectively. The results in Table 1 reveal that DNA1-19-1 and DNA2-59-1 are the most promising analogs since these two compounds had the lowest LOEC and LCIC values for O. perornata (10 nM and 100 nM, respectively). Based upon IC50 results in Table 3, DNA2-59-1 appears to be more toxic and selective towards O. perornata than DNA1-19-1.” left out

For test [2], the system named is Selenastrum capricornutum. The description is as above. The settings on record: for MIC: read-out: LCIC (lowest-complete-inhibition concentration), Selenastrum capricornutum. The test is classed as cell-based.
From the text: as §1, §2
as §2, with “(A rapid bioassay for selective algicides. Weed Technol. (1997), vol. 11, pp. 767-774).” for “(1997).”, “(K. K. Schradar, M. Q. de Regt, P. D. Tidwell, C. S. Tucker and S. O. Duke, Selective growth inhibition of the musty-odor producing cyanobacterium Oscillatoria cf. chalybea by natural compounds. Bull. Environ. Contam. Toxicol. (1998a), vol.60, pp. 651-658).” for “(1998b).”, “The screening results of the anthraquinone derivatives and commercially available analogs of anthraquinone are presented in Tables 1 and 2, respectively. The results in Table 1 reveal that DNA1-19-1 and DNA2-59-1 are the most promising analogs since these two compounds had the lowest LOEC and LCIC values for O. perornata (10 nM and 100 nM, respectively). Based upon IC50 results in Table 3, DNA2-59-1 appears to be more toxic and selective towards O. perornata than DNA1-19-1.” left out

[3] abbreviates: Planktothrix perornata, rapid screening.
The mark [4] stands for this setting: Selenastrum capricornutum, rapid screening.

≈ marks a conversion by molar mass, not a printed value. Like-named read-outs stand apart in the source and are kept apart here. Bounds are passed on as bounds.

Turning to `CNc1cccc2c1C(=O)c1ccccc1C2=O` [1-(methylamino) anthraquinone, reference compound], the figures for the MIC in test [1] (Planktothrix perornata) and in test [2] (Selenastrum capricornutum) were 100 µM (≈ 23.7 µg/mL) and greater than 100 µM, respectively.
On to `COCCOCCOc1cccc2c1C(=O)c1ccccc1C2=O` [DNA3-7-1, 1-[2-(2-Methoxyethoxy)ethoxy]-9,10-anthraquinone], for which the values for the MIC in test [1] (setting [3]) and in test [2] (setting [4]) were 100 µM (≈ 32.6 µg/mL) and greater than 100 µM, respectively. For the same compound, the minimal effective concentration in test [1] (setting [3]) is 10000 nM; in test [2] (Selenastrum capricornutum, rapid screening, read-out: LOEC (lowest-observed-effect concentration), Selenastrum capricornutum), greater than 100 µM.
Take `CC(C)(C)NCc1ccc2c(c1)C(=O)c1ccccc1C2=O.O=P(O)(O)O` [DNA3-33-1, 2-[Methylamino-N-(1′1′-dimethylethyl)]-9,10-anthraquinone monophosphate]: in test [1] (rapid screening), the “LCIC (lowest-complete-inhibition concentration), Oscillatoria perornata” value is reported as 1,000 nM and the “LOEC (lowest-observed-effect concentration), Oscillatoria perornata” value (from here on “LOEC … Oscillatoria perornata”) is 1,000 nM. In test [2] (rapid screening), the “LCIC (lowest-complete-inhibition concentration), Selenastrum capricornutum” value is 10,000 nM and the “LOEC (lowest-observed-effect concentration), Selenastrum capricornutum” value (from here on “LOEC … Selenastrum capricornutum”) is 1,000 nM.
Regarding `CN(C)CCCNCc1ccc2c(c1)C(=O)c1ccccc1C2=O.O=P(O)(O)O.O=P(O)(O)O` [DNA2-23-1, 2-[Methylamino-N-(propyl-3′-N,N-dimethylamino)]-9,10-anthraquinone diphosphate], in test [1] (rapid screening), the “LCIC (lowest-complete-inhibition concentration), Oscillatoria perornata” value was 1,000 nM and the minimal effective concentration was 100 nM. Besides, in test [2] (rapid screening), the “LCIC (lowest-complete-inhibition concentration), Selenastrum capricornutum” value was 10,000 nM and the “LOEC … Selenastrum capricornutum” value is given as 10,000 nM.
Consider `O=C1c2ccccc2C(=O)c2cc(CNC3CC3)ccc21.O=P(O)(O)O` [DNA3-35-1, 2-[Methylamino-N-(cyclopropyl)]-9,10-anthraquinone monophosphate], for which, in test [1] (rapid screening), the “LCIC (lowest-complete-inhibition concentration), Oscillatoria perornata” value was 1,000 nM and the “LOEC … Oscillatoria perornata” value is on record as 1,000 nM. In addition, in test [2] (rapid screening), the “LCIC (lowest-complete-inhibition concentration), Selenastrum capricornutum” value is recorded as 100,000 nM and the “LOEC … Selenastrum capricornutum” value is reported as 10,000 nM.
For the compound `CCNCc1ccc2c(c1)C(=O)c1ccccc1C2=O.O=P(O)(O)O` [DNA3-17-1, 2-[Methylamino-N-(ethyl)]-9,10-anthraquinone monophosphate], in test [1] (rapid screening), the “LCIC (lowest-complete-inhibition concentration), Oscillatoria perornata” value is listed as 1,000 nM and the “LOEC … Oscillatoria perornata” value is 1,000 nM. In addition, in test [2] (rapid screening), the “LCIC (lowest-complete-inhibition concentration), Selenastrum capricornutum” value is reported as 10,000 nM and the “LOEC … Selenastrum capricornutum” value was 10,000 nM.
Consider `CNCc1ccc2c(c1)C(=O)c1ccccc1C2=O.O=P(O)(O)O` [DNA3-19-1, 2-[Methylamino-N-(methyl)]-9,10-anthraquinone monophosphate], for which, in test [1] (rapid screening), the “LCIC (lowest-complete-inhibition concentration), Oscillatoria perornata” value is given as 1,000 nM and the “LOEC … Oscillatoria perornata” value is given as 1,000 nM. Further, in test [2] (rapid screening), the “LCIC (lowest-complete-inhibition concentration), Selenastrum capricornutum” value was 10,000 nM and the “LOEC … Selenastrum capricornutum” value is recorded as 10,000 nM.
For `COCCOCCOCCOCc1ccc2c(c1)C(=O)c1ccccc1C2=O` [DNA3-61-1, 2-methylene-[2-[2-(2-methoxyethoxy)ethoxy]ethoxy]-9,10-anthraquinone], in test [1] (rapid screening), the “LCIC (lowest-complete-inhibition concentration), Oscillatoria perornata” value is 10,000 nM and the minimal effective concentration was found to be 100 nM. For the same compound, in test [2] (rapid screening), the “LCIC (lowest-complete-inhibition concentration), Selenastrum capricornutum” value is recorded as >100,000 nM and the “LOEC … Selenastrum capricornutum” value is recorded as >100,000 nM.
`CCCCN(CCCC)Cc1ccc2c(c1)C(=O)c1ccccc1C2=O.O=P(O)(O)O` [DNA2-57-1, 2-[Methylamino-N,N-(dibutyl)]-9,10-anthraquinone monophosphate]: in test [1] (rapid screening), the “LCIC (lowest-complete-inhibition concentration), Oscillatoria perornata” value is on record as 1,000 nM and the “LOEC … Oscillatoria perornata” value is 1,000 nM. For the same compound, in test [2] (rapid screening), the “LCIC (lowest-complete-inhibition concentration), Selenastrum capricornutum” value was found to be 1e+06 nM and the “LOEC … Selenastrum capricornutum” value is given as 100,000 nM.
Consider `CCCCCNCc1ccc2c(c1)C(=O)c1ccccc1C2=O.O=P(O)(O)O` [DNA2-55-1, 2-[Methylamino-N-(pentyl)]-9,10-anthraquinone monophosphate], for which, in test [1] (rapid screening), the “LCIC (lowest-complete-inhibition concentration), Oscillatoria perornata” value is given as 1,000 nM and the “LOEC … Oscillatoria perornata” value is 1,000 nM. Further, in test [2] (rapid screening), the “LCIC (lowest-complete-inhibition concentration), Selenastrum capricornutum” value is 100,000 nM and the “LOEC … Selenastrum capricornutum” value is on record as 100,000 nM.
Regarding `CCCC(C)NCc1ccc2c(c1)C(=O)c1ccccc1C2=O.O=P(O)(O)O` (centres unmarked) [DNA2-53-1, 2-[Methylamino-N-(1′-methylbutyl)]-9,10-anthraquinone monophosphate], in test [1] (rapid screening), the MIC amounted to 0.1 µM and the minimal effective concentration is given as 100 nM. In test [2] (rapid screening), the “LCIC (lowest-complete-inhibition concentration), Selenastrum capricornutum” value is 100,000 nM and the “LOEC … Selenastrum capricornutum” value was 100,000 nM.
As for `O=C(O)c1ccc2c(c1)C(=O)c1ccccc1C2=O` [anthraquinone-2-carboxylic acid, reference compound], the MIC in test [1] (Planktothrix perornata) and in test [2] (Selenastrum capricornutum) was greater than 1000 µM each time.
`CCN(CC)Cc1cccc2c1C(=O)c1ccccc1C2=O` [DNA4-39-1, 1-[Methylamino-N,N-(diethyl)]-9,10-anthraquinone monophosphate]: in test [1] (rapid screening), the “LCIC (lowest-complete-inhibition concentration), Oscillatoria perornata” value is given as 1,000 nM and the minimal effective concentration was determined as 100 nM. Further, in test [2] (rapid screening), the “LCIC (lowest-complete-inhibition concentration), Selenastrum capricornutum” value is 10,000 nM and the “LOEC … Selenastrum capricornutum” value is given as 10,000 nM.
In the case of `O=C1c2cccc(O)c2C(=O)c2c(O)cccc21` [1,8-dihydroxyanthraquinone, reference compound], the MIC is 100 µM (≈ 24 µg/mL) in test [1] (setting [3]) and greater than 100 µM in test [2] (setting [4]).
Turning to `CC(C)NC(C)c1ccc2c(c1)C(=O)c1ccccc1C2=O` (centres unmarked) [DNA2-89-1, 2-[1′-Amino-N-(1′-methylethyl)ethyl]-9,10-anthraquinone 9,10-anthraquinone], in test [1] (rapid screening), the “LCIC (lowest-complete-inhibition concentration), Oscillatoria perornata” value is 1,000 nM and the “LOEC … Oscillatoria perornata” value was 1,000 nM. Further, in test [2] (rapid screening), the “LCIC (lowest-complete-inhibition concentration), Selenastrum capricornutum” value is recorded as 100,000 nM and the “LOEC … Selenastrum capricornutum” value is recorded as 100,000 nM.
`O=C1c2ccccc2C(=O)c2c(O)ccc(O)c21` [1,4-dihydroxyanthraquinone, reference compound]: the MIC in test [1] (setting [3]) and in test [2] (setting [4]) was greater than 100 µM in each case.
In the case of `Nc1cccc2c1C(=O)c1ccccc1C2=O` [1-aminoanthraquinone, reference compound], the MIC was 100 µM (≈ 22.3 µg/mL) in test [1] (setting [3]) and greater than 100 µM in test [2] (setting [4]).
As to `CCN(CC)Cc1ccc2c(c1)C(=O)c1ccccc1C2=O.O=P(O)(O)O` [DNA2-51-1, 2-[Methylamino-N,N-(diethyl)]-9,10-anthraquinone monophosphate], in test [1] (rapid screening), the MIC came to 0.1 µM and the minimal effective concentration turned out to be 100 nM. Besides, in test [2] (rapid screening), the “LCIC (lowest-complete-inhibition concentration), Selenastrum capricornutum” value is 100,000 nM and the “LOEC … Selenastrum capricornutum” value is given as 10,000 nM.
